Laboratory results reported in PubChem BioAssay (NCI).
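Interpolation was linear, between the two tested concentrations surrounding the appropriate level; five concentrations were tested over 48 hours in 96-well plates. At the TGI there is no net growth.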

What was measured:
Assay in all cases: growth of human tumour cells (NCI), 48 h
LXFL 529 NSCLC = test system: LXFL 529 NSCLC
M14 melanoma = test system: M14 melanoma
SF-539 CNS = test system: SF-539 CNS
HOP-18 NSCLC = test system: HOP-18 NSCLC
SF-295 CNS = test system: SF-295 CNS
OVCAR-4 ovarian = test system: OVCAR-4 ovarian
EKVX NSCLC = test system: EKVX NSCLC
NCI-H23 lung = test system: NCI-H23 lung
HCC-2998 colon = test system: HCC-2998 colon
KM12 colon = test system: KM12 colon
UACC-62 melanoma = test system: UACC-62 melanoma
U251 CNS = test system: U251 CNS
SW-620 colon = test system: SW-620 colon
M19-MEL melanoma = test system: M19-MEL melanoma
SK-MEL-2 melanoma = test system: SK-MEL-2 melanoma
SNB-78 CNS = test system: SNB-78 CNS
RPMI-8226 leukemia = test system: RPMI-8226 leukemia
SNB-75 CNS = test system: SNB-75 CNS
SR leukemia = test system: SR leukemia
OVCAR-3 ovarian = test system: OVCAR-3 ovarian
SF-268 CNS = test system: SF-268 CNS
K-562 leukemia = test system: K-562 leukemia
KM20L2 colon = test system: KM20L2 colon
SN12C renal = test system: SN12C renal
MOLT-4 leukemia = test system: MOLT-4 leukemia
SK-MEL-5 melanoma = test system: SK-MEL-5 melanoma
DMS 114 small cell lung = test system: DMS 114 small cell lung
NCI-H460 lung = test system: NCI-H460 lung
HT29 colon = test system: HT29 colon
NCI-H522 lung = test system: NCI-H522 lung
COLO 205 colon = test system: COLO 205 colon
A498 renal = test system: A498 renal
HCT-116 colon = test system: HCT-116 colon
MALME-3M melanoma = test system: MALME-3M melanoma
HOP-92 NSCLC = test system: HOP-92 NSCLC
SNB-19 CNS = test system: SNB-19 CNS
786-0 renal = test system: 786-0 renal
OVCAR-5 ovarian = test system: OVCAR-5 ovarian
DLD-1 colon = test system: DLD-1 colon
SK-OV-3 ovarian = test system: SK-OV-3 ovarian
CCRF-CEM leukemia = test system: CCRF-CEM leukemia
UACC-257 melanoma = test system: UACC-257 melanoma
HOP-62 NSCLC = test system: HOP-62 NSCLC
DMS 273 small cell lung = test system: DMS 273 small cell lung
CAKI-1 renal = test system: CAKI-1 renal
IGROV1 ovarian = test system: IGROV1 ovarian
A549 NSCLC = test system: A549 NSCLC
OVCAR-8 ovarian = test system: OVCAR-8 ovarian
ACHN renal = test system: ACHN renal
TK-10 renal = test system: TK-10 renal
HL-60(TB) leukemia = test system: HL-60(TB) leukemia
NCI-H226 lung = test system: NCI-H226 lung
UO-31 renal = test system: UO-31 renal
SK-MEL-28 melanoma = test system: SK-MEL-28 melanoma
RXF 393 renal = test system: RXF 393 renal
LOX IMVI melanoma = test system: LOX IMVI melanoma
HCT-15 colon = test system: HCT-15 colon

Measured: TGI

Cc1cccc(NC(=O)C(=O)C2C(=O)NC(=O)NC2=O)c1C
> 100 µM: all assays above
